Measurements from US20220142983A1, “METHODS OF TREATING CANCER WITH FARNESYLTRANSFERASE INHIBITORS” (Kura Oncology, Inc., priority 2019, published 2022).

How the values were obtained:
Type in all cases: in vivo, human
[1] = tested on: newly diagnosed elderly patients with poor risk AML; assay: Tipifarnib clinical study in newly diagnosed elderly patients with poor risk AML; conditions: for PFS: N=34
Procedure: (§1) Clinical studies with tipifarnib were performed in newly diagnosed elderly patients with poor risk AML or relapsed and refractory AML. In these studies, patient selection was not based on genetic markers. Anecdotal evidence of tipifarnib single agent activity was reported.
Patient subset—available AML marrow samples with NRAS WT or unknown, N=27 (NCBI GEO, GSE8970).
Since achievement of CR is the main driver of clinical benefit in AML, additional screenings were conducted to differentiate the CR responses vs HI/SD responses in the higher RHOE expression levels subset of FIG. 3A (replicated in FIG. 4A).
Another screening conducted to differentiate the CR responses and HI/SD responses from PD responses was based on both RHOE expression levels and RHOA expression levels of the subjects shown in FIG. 3A (replicated in FIG. 5). RHOA mRNA expression data was generated by RNASeq and expressed as RNA Seq V2 RSEM.
The mRNA expression profiling data from the clinical study with newly diagnosed elderly patients with poor risk AML were also analyzed for CXCR3, CXCL12, and RHOE. Patient subset—available AML marrow samples with NRAS WT, unknown, N-12, N12/N13, or N61 (1,2); N=34. […] Probe 207681 used for CXCR3 in the GPL96 Affimetrix microarray. The combination of the CXCR3 expression levels and CXC12 expression levels of newly-diagnosed elderly, frail AML patients, also correlated with treatment response. In particular, the product (multiplication) of the CXCR3 (“receptor”) expression levels and the CXCL12 (“ligand”) expression levels further differentiated the CR and HI/SD responses from the PD responses in the AML patients treated with tipifarnib. […] PFS in the high CXCL12×CXCR3 product subset was 433 days vs. 64 days in the low expressing product subset (HR=0.24, p=0.005, N=34).

[2] = tested on: relapsed/refractory CMML patients; assay: Tipifarnib clinical study in relapsed/refractory CMML patients
Procedure: Clinical studies with tipifarnib were performed in relapsed/refractory CMML patients (N=20) receiving tipifarnib as a single agent orally, twice a day (bid) for 7 days in alternating weeks (Days 1-7 and 15-21) in 28 day cycles. Eligible patients received tipifarnib administered at a starting dose of 1200 mg or 900 mg, orally with food, bid for 7 days in alternating weeks (Days 1-7 and 15-21) in 28 day cycles. Stepwise 300 mg dose reductions to control treatment-related, treatment-emergent toxicities were allowed.
Inclusion Criteria for this clinical study include: (a) diagnosis of CMML as defined by the World Health Organization (WHO) criteria; (b) Eastern Cooperative Oncology Group (ECOG) performance status 0 or 1; (c) subject is willing and able to comply with scheduled visits, treatment plans, laboratory tests and other procedures (including bone marrow assessments); (d) at least 1 week since the last systemic therapy regimen prior to Cycle 1 Day 1, subjects on a stable dose of hydroxyurea for at least 2 weeks prior to Cycle 1 Day 1 may continue on hydroxyurea until Cycle 1 Day 7, and subjects must have recovered to NCI CTCAE v. […] Both females and male subjects with female partners of child-bearing potential must agree to use an adequate method of contraception for 2 weeks prior to screening, during, and at least 4 weeks after last dose of study medication. Female subjects must have a negative serum or urine pregnancy test within 72 hours prior to start of study medication. Not breast feeding at any time during the study; and (h) written and voluntary informed consent understood, signed and dated. […]

[3] = tested on: relapsed and refractory AML patients; assay: Tipifarnib clinical study in relapsed and refractory AML patients
Procedure: as §1

[4] = higher pre-treatment CXCL12xCXCR3 product levels (20,000 or more) (FIG. 7)
[5] = lower RHOE expression levels (FIG. 3A)
[6] = lower pre-treatment CXCL12xCXCR3 product levels (less than 20,000) (FIG. 7)

Q: What does the source list for Cn1cncc1[C@@](N)(c1ccc(Cl)cc1)c1ccc2c(c1)c(-c1cccc(Cl)c1)cc(=O)n2C [tipifarnib]?
A: median progression free survival ([1]; CXCR3 expression levels in the first quartile (FIG. 9)): about 10 days; median progression free survival ([1]; CXCR3 expression levels in the fourth quartile, p=0.0004 (FIG. 9)): 406 days; median progression free survival ([1]; CXCR3 expression levels in the second quartile (FIG. 9)): about 70 days; median progression free survival ([1]; CXCR3 expression levels in the third quartile (FIG. 9)): 248 days; median progression free survival ([1]; RND3 expression levels greater than or equal to 144 (higher RHOE) (FIG. 3B)): 8.2 months; median progression free survival ([1]; RND3 expression levels less than 144 (lower RHOE) (FIG. 3B)): 2.2 months; PFS ([1]; high CXCL12xCXCR3 product subset): 433 days; PD responses ([1]; higher RHOE expression levels (FIG. 3A)): 1 out of 14; CR responses [1, 4]: 8 out of 14 subjects; PD responses [1, 4]: 0 out of 14; SD/HI responses [1, 4]: 6 out of 14 subjects; PFS ([1]; low expressing CXCL12xCXCR3 product subset): 64 days; CR responses [1, 5]: 0 out of 13 subjects; PD responses [1, 5]: 7 out of 13 subjects; CR responses [1, 6]: 1 out of 20 subjects; PD responses [1, 6]: 13 out of 20 subjects; SD/HI responses [1, 6]: 6 out of 20 subjects; HR (PFS, high vs low CXCL12xCXCR3 product subset) ([1]; p=0.005, N=34): 0.24; CR responses ([1]; treatment naive elderly, frail AML patients with higher RHOE expression levels (FIG. 3A)): 8 out of 14 subjects; median Time to Treatment Failure (TTF) ([2]; tertiale 1 (lowest PRICKLE2 expression), tipifarnib single agent (FIG. 11)): 99 days; median Time to Treatment Failure (TTF) ([2]; tertiale 2 of PRICKLE2 expression, tipifarnib single agent (FIG. 11)): 84 days; median Time to Treatment Failure (TTF) ([2]; tertiale 3 (highest PRICKLE2 expression), tipifarnib single agent, p=0.047 vs tertiale 1 (FIG. 11)): 288 days; mPFS percentage ([3]; CXCR3 expression levels in the first tertiale, N=58 (FIG. 10)): 54 days; mPFS percentage ([3]; CXCR3 expression levels in the second tertiale, N=58 (FIG. 10)): 75 days; mPFS percentage ([3]; CXCR3 expression levels in the third tertiale, N=58, p=0.009 (FIG. 10)): 182 days
